From patent US12358915B2, “METTL3 inhibitory compounds” (STORM THERAPEUTICS LTD., priority 2019, dated 2025)
Read-outs that look alike come from different tables or passages of the source.

Target: T1, METTL3/14 (Homo sapiens, UniProt Q86U44)
T1 construct: The enzyme used was full-length his-tagged METTL3; His; made in house
Assay: METTL3/14 methyltransferase assay (METTL3_14 RFMS, RapidFire mass spectrometry);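 also: recombinant His-tagged METTL3 with FLAG-tagged METTL14 from baculovirus, SAH product quantified by mass spectrometry against isotope-labelled internal standards, 60 min at room temperature, scaled between no-RNA and DMSO-only wells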
Assay type: biochemical
Conditions: read-out: METTL3_14 RFMS IC50

[1] = 5 nM METTL3/14, 0.2 μM RNA substrate, 0.5 μM SAM, lower limit of the assay IC50=5 nM, Compounds 63-265

T1 sequence (Q86U44 whole entry): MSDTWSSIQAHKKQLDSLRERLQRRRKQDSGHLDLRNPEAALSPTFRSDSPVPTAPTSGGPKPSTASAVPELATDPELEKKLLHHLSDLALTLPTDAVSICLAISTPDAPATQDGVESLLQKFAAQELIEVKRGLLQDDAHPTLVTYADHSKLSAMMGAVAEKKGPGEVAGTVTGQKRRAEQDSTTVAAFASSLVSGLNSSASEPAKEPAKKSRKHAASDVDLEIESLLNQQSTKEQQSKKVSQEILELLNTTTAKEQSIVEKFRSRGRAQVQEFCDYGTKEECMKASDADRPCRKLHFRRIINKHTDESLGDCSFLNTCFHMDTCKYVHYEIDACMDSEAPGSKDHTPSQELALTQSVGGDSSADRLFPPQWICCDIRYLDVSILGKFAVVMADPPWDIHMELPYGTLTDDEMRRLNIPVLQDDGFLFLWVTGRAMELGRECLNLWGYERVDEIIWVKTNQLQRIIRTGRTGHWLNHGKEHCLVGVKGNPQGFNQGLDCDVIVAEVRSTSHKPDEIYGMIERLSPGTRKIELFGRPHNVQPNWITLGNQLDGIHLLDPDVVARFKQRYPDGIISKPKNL
T1 sequence (Q9HCE5 whole entry partner): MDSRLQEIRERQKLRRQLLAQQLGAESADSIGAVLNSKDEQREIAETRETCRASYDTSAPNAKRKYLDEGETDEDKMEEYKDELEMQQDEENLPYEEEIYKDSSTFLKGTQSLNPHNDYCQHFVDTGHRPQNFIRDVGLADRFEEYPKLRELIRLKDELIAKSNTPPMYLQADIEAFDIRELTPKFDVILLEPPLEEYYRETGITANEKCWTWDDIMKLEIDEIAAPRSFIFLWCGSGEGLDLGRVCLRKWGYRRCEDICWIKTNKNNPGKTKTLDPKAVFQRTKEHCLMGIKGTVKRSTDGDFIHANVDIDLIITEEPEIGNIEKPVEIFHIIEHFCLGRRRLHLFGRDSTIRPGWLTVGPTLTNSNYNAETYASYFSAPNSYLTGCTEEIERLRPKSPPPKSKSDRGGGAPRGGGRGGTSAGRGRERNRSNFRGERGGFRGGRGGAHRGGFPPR
Procedure: The enzyme used was full-length his-tagged METTL3 co-expressed with full length FLAG-tagged METTL14 in a baculovirus expression system. […] After termination, plates were sealed, centrifuged and stored at 4° C. until analysis. […] Mass Spectrometry Analysis RNA methyltransferase activity was measured label free using the RapidFireTM mass spectrometry (RF/MS) platform. Stopped and stable assay plates were analyzed on the Agilent RF300 integrated autosampler/solid-phase extraction (SPE) system coupled to an ABSciex 4000 mass spectrometer for the generation of the product S-adenosyl homocysteine (SAH) and normalized to the ratio of signal of the two internal product standards, respectively. Solvent A was water containing 0.1% (v/v) TCA. Solvent B was acetonitrile/0.1% ammonium acetate (8:2, v/v). More specifically, plates were centrifuged at 4350 rpm for 10 min, samples were aspirated under vacuum for 600 ms, then loaded onto a C18 solid-phase extraction cartridge and washed for 3 s with solvent A at a flow rate of 1.5 mL/min. Retained product and internal standards were eluted with solvent B at a flow rate of 1 mL/min for 3 s and finally the cartridge was reequilibrated with solvent A for 500 ms.

| SMILES | IC50 [1] [nM] | IC50 [nM] |
| --- | --- | --- |
| O=C(NCc1cn2cc(C(F)(F)F)ccc2n1)c1cc(=O)n2ccccc2n1 [Compound 65, 4-oxo-N-{[6-(trifluoromethyl)imidazo[1,2-a]pyridin-2-yl]methyl}-4H-pyrido[1,2-a]pyrimidine-2-carboxamide] | 6600 | – |
| Cc1ccc2nc(Cc3nnc(-c4cccc5[nH]ncc45)s3)cn2c1 [Compound 66, 4-[5-({6-methylimidazo[1,2-a]pyridin-2-yl}methyl)-1,3,4-thiadiazol-2-yl]-1H-indazole] | 1350 | – |
| CC(C)(C)OC(=O)NCCc1ccc2nc(CNC(=O)c3cc(=O)n4ccccc4n3)cn2c1 [Compound 67, tert-butyl N-(2-{2-[({4-oxo-4H-pyrido[1,2-a]pyrimidin-2-yl}formamido)methyl]imidazo [1,2-a]pyridin-6-yllethyl) carbamate] | 8140 | – |
| O=C(NCc1ccccc1)c1ccc2nc(CNC(=O)c3cc(=O)n4ccccc4n3)cn2c1 [Compound 68, N-benzyl-2-[({4-oxo-4H-pyrido[1,2-a]pyrimidin-2-yl}formamido)methyl]imidazo [1,2-a]pyridine-6-carboxamide] | 5090 | – |
| Cc1ccc2nc(Cn3cc(-c4cccc5[nH]ncc45)nn3)cn2c1 [Compound 69, 4-[1-({6-methylimidazo[1,2-a]pyridin-2-yl}methyl)-1H-1,2,3-triazol-4-yl]-1H-indazole] | 1340 | – |
| O=C(NCc1cn2cc(CNCc3cccnc3)ccc2n1)c1cc(=O)n2ccccc2n1 [Compound 70, 4-oxo-N-{[6-({[(pyridin-3-yl)methyl]amino}methyl)imidazo [1,2-a]pyridin-2-yl]methyl}-4H-pyrido[1,2-a]pyrimidine-2-carboxamide] | 143 | – |
| COc1ccc(CNCc2ccc3nc(CNC(=O)c4cc(=O)n5ccccc5n4)cn3c2)cc1 [Compound 71, N-{[6-({[(4-methoxyphenyl)methyl]amino}methyl)imidazo [1,2-a]pyridin-2-yl]methyl}-4-oxo-4H-pyrido [1,2-a]pyrimidine-2-carboxamide] | 206 | – |
| O=C(NCc1cn2cc(CNCc3ccc(Cl)cc3)ccc2n1)c1cc(=O)n2ccccc2n1 [Compound 73, N-{[6-({[(4-chlorophenyl)methyl]amino}methyl)imidazo [1,2-a]pyridin-2-yl]methyl}-4-oxo-4H-pyrido [1,2-a]pyrimidine-2-carboxamide] | – | 64.9 |
| C[C@@H](NCc1ccc2nc(CNC(=O)c3cc(=O)n4ccccc4n3)cn2c1)c1ccccc1 [Compound 75, 4-oxo-N-{[6-({[(1R)-1-phenylethyl]amino}methyl)imidazo[1,2-a]pyridin-2-yl]methyl}-4H-pyrido[1,2-a]pyrimidine-2-carboxamide] | 48.1 | – |
| C[C@H](NCc1ccc2nc(CNC(=O)c3cc(=O)n4ccccc4n3)cn2c1)c1ccccc1 [Compound 76, 4-oxo-N-{[6-({[(1S)-1-phenylethyl]amino}methyl)imidazo [1,2-a]pyridin-2-yl]methyl}-4H-pyrido[1,2-a] pyrimidine-2-carboxamide] | 30 | – |
| O=C(NCc1cn2cc(CNCc3ccccc3F)ccc2n1)c1cc(=O)n2ccccc2n1 [Compound 77, N-{[6-({[(2-fluorophenyl)methyl]amino}methyl)imidazo [1,2-a]pyridin-2-yl]methyl}-4-oxo-4H-pyrido[1,2-a]pyrimidine-2-carboxamide] | 84 | – |
| O=C(NCc1cn2cc(CNCc3cccc(F)c3)ccc2n1)c1cc(=O)n2ccccc2n1 [Compound 79, N-{[6-({[(3-fluorophenyl)methyl]amino}methyl)imidazo[1,2-a]pyridin-2-yl]methyl}-4-oxo-4H-pyrido [1,2-a]pyrimidine-2-carboxamide] | 62.5 | – |
| O=C(NCc1cn2cc(CNCc3ccc(F)cc3)ccc2n1)c1cc(=O)n2ccccc2n1 [Compound 80, N-{[6-({[(4-fluorophenyl)methyl]amino}methyl)imidazo [1,2-a]pyridin-2-yl]methyl}-4-oxo-4H-pyrido[1,2-a]pyrimidine-2-carboxamide] | 16.5 | – |
| O=C(NCc1cn2cc(CNCCCC(F)(F)F)ccc2n1)c1cc(=O)n2ccccc2n1 [Compound 81, 4-oxo-N-[(6-{[(4,4,4-trifluorobutyl)amino]methyl}imidazo[1,2-a]pyridin-2-yl)methyl]-4H-pyrido[1,2-a]pyrimidine-2-carboxamide] | 27.7 | – |
| O=C(NCc1cn2cc(CNCC3CCOCC3)ccc2n1)c1cc(=O)n2ccccc2n1 [Compound 82, N-{[6-({[(oxan-4-yl)methyl]amino}methyl)imidazo[1,2-a]pyridin-2-yl]methyl}-4-oxo-4H-pyrido[1,2-a] pyrimidine-2-carboxamide] | 354 | – |
| O=C(NCc1cn2cc(CNCC3CC3)ccc2n1)c1cc(=O)n2ccccc2n1 [Compound 84, N-[(6-{[(cyclopropyl-methyl)amino]methyl}imidazo [1,2-a]pyridin-2-yl)methyl]-4-oxo-4H-pyrido [1,2-a]pyrimidine-2-carboxamide] | 36.5 | – |

| SMILES | IC50 [1] [nM] | IC50 [nM] |
| --- | --- | --- |
| O=C(NCc1cn2cc(CNCCC(F)(F)F)ccc2n1)c1cc(=O)n2ccccc2n1 [Compound 85, 4-oxo-N-[(6-{[(3,3,3-trifluoropropyl)amino]methyl}imidazo[1,2-a]pyridin-2-yl)methyl]-4H-pyrido[1,2-a]pyrimidine-2-carboxamide] | 25.5 | – |
| O=C(NCc1cn2cc(CNC3CCCCC3)ccc2n1)c1cc(=O)n2ccccc2n1 [Compound 86, N-({6-[(cyclohexyl-amino)methyl]imidazo[1,2-a]pyridin-2-yl}methyl)-4-oxo-4H-pyrido[1,2-a]pyrimidine-2-carboxamide] | 23.1 | – |
| O=C(NCc1cn2cc(CNCC3CCCCO3)ccc2n1)c1cc(=O)n2ccccc2n1 (centres unmarked) [Compound 88, N-{[6-({[(oxan-2-yl)methyl]amino}methyl)imidazo[1,2-a]pyridin-2-yl]methyl}-4-oxo-4H-pyrido[1,2-a] pyrimidine-2-carboxamide] | 114 | – |
| O=C(NCc1cn2cc(CNCC3CCCOC3)ccc2n1)c1cc(=O)n2ccccc2n1 (centres unmarked) [Compound 90, N-{[6-({[(oxan-3-yl)methyl]amino}methyl)imidazo [1,2-a]pyridin-2-yl]methyl}-4-oxo-4H-pyrido[1,2-a] pyrimidine-2-carboxamide] | 79.2 | – |
| O=C(NCc1cn2cc(CNCC3(F)CCCCC3)ccc2n1)c1cc(=O)n2ccccc2n1 [Compound 91, N-{[6-({[(1-fluorocyclohexyl)methyl]amino}methyl)imidazo [1,2-a]pyridin-2-yl]methyl}-4-oxo-4H-pyrido[1,2-a]pyrimidine-2-carboxamide] | 57.6 | – |
| O=C(NCc1cn2cc(CNCc3cccc(C4CC4)c3)ccc2n1)c1cc(=O)n2ccccc2n1 [Compound 92, N-{[6-({[(3-cyclopropyl-phenyl)methyl]amino}methyl)imidazo[1,2-a]pyridin-2-yl]methyl}-4-oxo-4H-pyrido[1,2-a]pyrimidine-2-carboxamide] | 112 | – |
| CC(C)(C)CCNCc1ccc2nc(CNC(=O)c3cc(=O)n4ccccc4n3)cn2c1 [Compound 93, N-[(6-{[(3,3-dimethylbutyl)amino]methyl}imidazo[1,2-a]pyridin-2-yl)methyl]-4-oxo-4H-pyrido[1,2-a] pyrimidine-2-carboxamide] | 13 | – |
| O=C(NCc1cn2cc(CNCCOC(F)(F)F)ccc2n1)c1cc(=O)n2ccccc2n1 [Compound 94, 4-oxo-N-{[6-({[2-(trifluoromethoxy)ethyl]amino}methyl)imidazo [1,2-a]pyridin-2-yl]methyl}-4H-pyrido[1,2-a] pyrimidine-2-carboxamide] | 131 | – |
| O=C(NCc1cn2cc(CNCC3CCCO3)ccc2n1)c1cc(=O)n2ccccc2n1 (centres unmarked) [Compound 95, 4-oxo-N-{[6-({[(oxolan-2-yl)methyl]amino}methyl)imidazo [1,2-a]pyridin-2-yl]methyl}-4H-pyrido[1,2-a]pyrimidine-2-carboxamide] | 74.4 | – |
| CS(=O)(=O)CCNCc1ccc2nc(CNC(=O)c3cc(=O)n4ccccc4n3)cn2c1 [Compound 96, N-[(6-{[(2-methane-sulfonylethyl)amino]methyl}imidazo[1,2-a]pyridin-2-yl)methyl]-4-oxo-4H-pyrido [1,2-a]pyrimidine-2-carboxamide] | 947 | – |
| O=C(NCc1cn2cc(CN3CCC(c4ccccc4)C3)ccc2n1)c1cc(=O)n2ccccc2n1 (centres unmarked) [Compound 97, 4-oxo-N-({6-[(3-phenylpyrrolidin-1-yl)methyl]imidazo [1,2-a]pyridin-2-yl}methyl)-4H-pyrido[1,2-a] pyrimidine-2-carboxamide] | 1020 | – |
| O=C(NCc1cn2cc(CNC3(C4CCCCC4)CC3)ccc2n1)c1cc(=O)n2ccccc2n1 [Compound 98, N-[(6-{[(1-cyclohexyl-cyclopropyl)amino]methyl}imidazo[1,2-a]pyridin-2-yl)methyl]-4-oxo-4H-pyrido [1,2-a]pyrimidine-2-carboxamide] | 45.6 | – |
| O=C(NCc1cn2cc(CNCc3cncs3)ccc2n1)c1cc(=O)n2ccccc2n1 [Compound 99, 4-oxo-N-{[6-({[(1,3-thiazol-5-yl)methyl]amino}methyl)imidazo[1,2-a]pyridin-2-yl]methyl}-4H-pyrido[1,2-a] pyrimidine-2-carboxamide] | 318 | – |
| CC(C)(C)OC(=O)N1CCCC(CNCc2ccc3nc(CNC(=O)c4cc(=O)n5ccccc5n4)cn3c2)C1 (centres unmarked) [Compound 100, tert-butyl 3-{[({2-[({4-oxo-4H-pyrido[1,2-a]pyrimidin-2-yl}formamido)methyl]imidazo [1,2-a]pyridin-6-yl}methyl)amino]methyl}piperidine-1-carboxylate] | 1380 | – |
| O=C(NCc1cn2cc(CNCC3CCC(F)(F)CC3)ccc2n1)c1cc(=O)n2ccccc2n1 [Compound 101, N-{[6-({[(4,4-difluorocyclohexyl)methyl]amino}methyl)imidazo [1,2-a]pyridin-2-yl]methyl}-4-oxo-4H-pyrido [1,2-a]pyrimidine-2-carboxamide] | 18.1 | – |
| CC(C)(C)OC(=O)N1CCCCC1CNCc1ccc2nc(CNC(=O)c3cc(=O)n4ccccc4n3)cn2c1 (centres unmarked) [Compound 102, tert-butyl 2-{[({2-[({4-oxo-4H-pyrido[1,2-a]pyrimidin-2-yl} formamido)methyl]imidazo[1,2-a]pyridin-6-yl}methyl)amino]methyl}piperidine-1-carboxylate] | 429 | – |
